According to patent US20060116392A1, “Methods for treating anxiety disorders and related article of manufacture” (priority 2004, published 2006):

Assays:
[1] = test system: morphine CPP; test: Induction of morphine conditioned place preference (CPP); inhibitor given after conditioning; assay type: in vivo, Long Evans rats; conditions: for CPP score (time spent in drug associated-chamber), mean±SEM: single s.c. dose at end of four-day conditioning, anisomycin and cycloheximide groups combined; for effect on morphine CPP: single s.c. dose at the end of four-day conditioning, tested at 24 hours
Description: . CPP was tested after 24 hours. To determine whether the effect was stable, the animals were retested 1 week later.
(§1) Because both anisomycin and cycloheximide produced a similar effect, the CPP score of the two groups were combined. […] Further experimentation was needed to determine whether a more extended inhibition of protein synthesis was able to persistently block CPP. Groups of rats were treated as above but received two injections of cycloheximide, one immediately after the last conditioning session and the second 5 hours later. In parallel, the rates of protein synthesis inhibition, over time, following a single or double injection were established. […] With a double injection, 5 hours apart, the rate of protein synthesis inhibition at 6 hours was maintained at 71%. The results after two injections were similar to those after a single injection; in fact, the CPP of rats that received two injection of cycloheximide was inhibited at 24 hours, but recovered a week later (data not shown).
Experimentation was needed to test the possibility that blocking protein synthesis after each daily conditioning produced a stable loss of CPP. Groups of rats received an injection of either cycloheximide or vehicle every day at the end of each conditioning trial and were then tested 24 hours, 1 week and 4 weeks later. […] This inhibition persisted at 1 week (254.8±32.8 sec and 429.4±33.1 sec, respectively, p<0.01) and 4 weeks (243.3±21.8 sec and 416.8±31.4 sec, respectively, p<0.01) post-conditioning (FIG. 1B).
(§2) Adult Long Evans rats (200-250 grams) were used for all the experiments. On day 1, the rats received a single pre-exposure test in a box composed of two distinct compartments (Pre-conditioning). The time spent in each chamber over 10 minutes was recorded (unconditioned preference) and then the animals were returned to their homecages. Animals showing a strong unconditioned preference (>540 s) were discarded. On the subsequent 4 days, place preference conditioning was conducted using an unbiased procedure. In each experimental group, the animals received a subcutaneous injection of either morphine (10 mg/kg) or saline (vehicle solution). Half of both groups were confined for 30 minutes in the spontaneously preferred compartment and the other half in the non-preferred compartment. Testing consisted of allowing the animals free access to both chambers for 10 minutes and recording the amount of time that the animals spend in the conditioned chamber (CPP score). All protocols complied with the N.I.H. Guide for the Care and Use of Laboratory Animals and were approved by the Mount Sinai School of Medicine Animal care Committees.
(§3) Anisomycin and Cycloheximide were injected s.c. at 210 mg/Kg (Milekic and Alberini, 2002) and 2.8 mg/Kg (Squire et al., 1980), respectively. Anisomycin was dissolved as previously described (Milekic and Alberini, 2002). Cycloheximide was dissolved in DMSO and finally diluted in 1% DMSO/saline. Vehicle solutions were prepared accordingly.

[2] = test system: morphine CPP; test: Maintenance of morphine CPP after contextual reactivation (Test 1); inhibitor given after recall; assay type: in vivo, Long Evans rats; conditions: for CPP score, mean±SEM: injection immediately after Test 1 (1 week after conditioning), Test 2, 24 hours later, cycloheximide and anisomycin scores combined; for change in CPP score: injection immediately after Test 1, re-tested 24 hours later (Test 2)
Description: The purpose of second set of experiments was to determine whether morphine CPP becomes labile if recalled. Groups of rats were conditioned to morphine for 4 days. […] This test recalled the experience (Test 1), or, in other words, reactivated CPP. Immediately after Test 1, half of the rats received an injection of cycloheximide or anisomycin and half were injected with vehicle. The animals were re-tested 24 hours later (Test 2). […] (Test1-vehicle: 394.4±42.6 sec; Test1-inhibitor: 387.8±25.8 sec; Test2-vehicle 413.3±35.9 sec; Test2-inhibitor 425.9±25.3 sec) (FIG. 2). Because both cycloheximide and anisomycin-treated rats performed similarly, their scores were combined.
as §2, §3

[3] = test system: morphine CPP; test: Consolidated morphine CPP after a single reconditioning session; inhibitor given after reconditioning; assay type: in vivo, Long Evans rats
Source text: However, it is important to consider that during morphine CPP, the drug may serve as an internal reinforcer and the animal experiences a strong reward. It remained unknown whether CPP may become labile if the rewarding state of the drug experience is concomitantly reactivated with the contextual cues (reconditioning). Therefore, it was examined whether a previously formed CPP becomes labile after a reconditioning session. Rats were conditioned to morphine for 4 days and, 1 week later, were exposed to another, single conditioning session. Immediately after this session, half of the animals received an injection of inhibitor (cycloheximide or anisomycin) and the other half of vehicle solution and were then all retested 24 hours and 1 week later.
It was then tested whether blocking protein synthesis after reconditioning for a longer time would result in a stable disruption of CPP. Groups of rats were treated as above but received two injections of cycloheximide, one immediately after reconditioning and the second 5 hours later, a protocol that, as described in the first set of experiments, block 70% of protein synthesis for several hours.
as §2, §3

[4] = test system: morphine CPP; test: Morphine CPP, conditioning context omitted (injections in homecage); assay type: in vivo, Long Evans rats
Description: (3C) The conditioning context was omitted and rats (n=8) were injected in their home cage with morphine and 30 min later with cycloheximide at the same time point as in (3A) and (3B). CPP was tested 24 hr after injection (post-injection).
(3D) Rats were injected only with cycloheximide (n=9) in the home cage at the same time points as in (3A) and (3B) without receiving either morphine or exposure to the conditioning context. CPP was tested 24 hr after the last injection (post-injection).
To investigate whether the blocking effect of the inhibitors on CPP was context-specific, the conditioning context was omitted, that is morphine and cycloheximide were administered in the homecages at the same times after conditioning.
as §2
Anisomycin and Cycloheximide were injected s.c. at 210 mg/Kg (Milekic and Alberini, 2002) and 2.8 mg/Kg (Squire et al., 1980), respectively. Anisomycin was dissolved as previously described (Milekic and Alberini, 2002). […]

[5] = test system: protein synthesis; test: Inhibition of protein synthesis in brain (L-[35S]methionine incorporation); assay type: in vivo, rats
Description: as §1
Inhibition of protein synthesis was assessed according to Rosenblum et al. (1993) with modifications. Rats were injected with 125 μCi L-[^35S]methionine (i.p.) and immediately after received an injection of either protein synthesis inhibitors, (cycloheximide or anisomycin) or vehicle solution. The rats were sacrificed one hour after the last inhibitor injection. The brains were homogenized in 5 volumes of cold lysis buffer (1% SDS, 60 mM Tris.Cl pH 7.4, 62.4 mM imidazole, 40 mM DTT, 10% glycerol). The homogenates were boiled for 5 min and centrifuged at 18,000 g for 20 min at room temperature. Equal amount of proteins were precipitated with 20% TCA and the radioactivity was counted. The inhibition of protein synthesis was calculated as: [1−(CPMinhibitor/CPMvehicle)]×100.

[6] = single injection immediately after reconditioning, 1 week later, cycloheximide or anisomycin combined
[7] = single injection immediately after reconditioning, 24 hours after reconditioning, cycloheximide or anisomycin combined
[8] = injection every day at the end of each conditioning trial, 24 hours after conditioning

SMILES: COc1ccc(C[C@H]2NC[C@H](O)[C@H]2OC(C)=O)cc1 [anisomycin]
- CPP score (time spent in drug associated-chamber), mean±SEM ([1]; 24 hours): 280.1 ± 17.5 s
- CPP score (time spent in drug associated-chamber), mean±SEM ([1]; re-tested 1 week later): 358.9 ± 28.0 s
- effect on morphine CPP [1]: completely blocked
- CPP score, mean±SEM [2]: 425.9 ± 25.3 s
- change in CPP score [2]: No change
- CPP score, mean±SEM [3, 6]: 365.4 ± 45.1 s
- CPP score, mean±SEM [3, 7]: 261.5 ± 33.9 s

SMILES: C[C@@H]1C[C@@H]([C@H](O)CC2CC(=O)NC(=O)C2)C(=O)[C@@H](C)C1 [cycloheximide]
- CPP score, mean±SEM ([1]; injection every day at the end of each conditioning trial, 1 week post-conditioning): 254.8 ± 32.8 s
- CPP score, mean±SEM ([1]; injection every day at the end of each conditioning trial, 4 weeks post-conditioning): 243.3 ± 21.8 s
- CPP score, mean±SEM [1, 8]: 226.6 ± 47.2 s
- effect on CPP [1, 8]: complete inhibition
- CPP score (time spent in drug associated-chamber), mean±SEM ([1]; 24 hours): 280.1 ± 17.5 s
- CPP score (time spent in drug associated-chamber), mean±SEM ([1]; re-tested 1 week later): 358.9 ± 28.0 s
- effect on morphine CPP [1]: completely blocked
- effect on CPP ([1]; two injections (immediately after last conditioning session and 5 hours later), a week later, data not shown): recovered
- effect on CPP ([1]; two injections (immediately after last conditioning session and 5 hours later), at 24 hours, data not shown): inhibited
- CPP score, mean±SEM [2]: 425.9 ± 25.3 s
- change in CPP score [2]: No change
- CPP score, mean±SEM ([3]; double injection (immediately after reconditioning and 5 hours later), 24 hours): 264.1 ± 13.3 s
- CPP score, mean±SEM ([3]; double injection after reconditioning, 1 week): 239.9 ± 34.4 s
- CPP score, mean±SEM ([3]; double injection after reconditioning, 2 weeks): 270.1 ± 27.2 s
- CPP score, mean±SEM ([3]; double injection after reconditioning, 4 weeks): 278.4 ± 32.5 s
- effect on CPP ([3]; double injection after reconditioning, tested 24 hours to 4 weeks): completely and persistently blocked
- CPP score, mean±SEM [3, 6]: 365.4 ± 45.1 s
- CPP score, mean±SEM [3, 7]: 261.5 ± 33.9 s
- effect on CPP ([4]; morphine and cycloheximide administered in the homecages, conditioning context omitted): No blocking effect
- CPP score, mean±SEM ([4]; morphine and cycloheximide administered in the homecages, conditioning context omitted, post-conditioning (24 hr after injection)): 362.22 ± 17.4 s
- CPP score, mean±SEM ([4]; only the inhibitor in the homecage, morphine and context omitted, post-conditioning (24 hr after last injection)): 399.8 ± 31.6 s
- inhibition of protein synthesis ([5]; double injection, 5 hours apart, at 6 hours): 71%
- inhibition of protein synthesis ([5]; single injection, at 1 hour): 70%
- inhibition of protein synthesis ([5]; single injection, at 6 hours after injection): 23%
- protein synthesis blocked ([5]; two injections, 5 hours apart, for several hours): 70%
